Data reported in patent US20210361549A1, “ANTIPERSPIRANT” (MANDOM CORPORATION, priority 2018, published 2021).

Columns and labels:
[1] = system: secretory duct of the sweat gland (whole sweat glands); experiment: Test Example 2: time-lapse imaging of isolated whole sweat glands, average moving distance of nuclei of secretory duct cells; type: cell-based, human; conditions: antiperspirant as prepared contacted first; stimulating agent of Production Example 4 (10 mM pyrocalpin); five cells; FIG. 3 to FIG. 8
Description: Each of the antiperspirants obtained in Examples 2 to 7 was contacted with the whole sweat glands respectively, and change of the average of moving distances of nuclei of cells of a secretory duct of the sweat gland was examined with passage of time. Whether or not nuclei of cells of the secretory duct of the sweat gland moved was determined based on the results shown in FIG. 3 to FIG. 8, and evaluated in accordance with the following criteria for evaluation. […] The maximum value of the average of moving distances of nuclei of cells of the secretory duct of the sweat gland exceeds 1 μm: the nuclei of cells of the secretory duct of the sweat glands are moved.

[2] = system: armpit sweating of expert panelists; experiment: Test Example 3: degree of sweating scored by expert panelists after application to armpit and light exercise; type: in vivo, human; conditions: applied to each armpit of ten expert panelists, light exercise; compared with control sample of Comparative Example 1 (PBS)
Description: The antiperspirant obtained in Example 1 is applied to each armpit of ten expert panelists having the same proficiency in evaluation skill, and then the expert panelists are subjected to a light exercise. Thereafter, each of the expert panelists gives a score of the degree of sweating on the basis of the following criteria for evaluation. In addition, each of the expert panelists gives a score of the degree of sweating in the same manner as in the above except that the control sample of Comparative Example 1 is used in place of the antiperspirant obtained in Example 1. The average of the scores given by the expert panelists is calculated.
0 point: sweat in a large amount.
2 points: slightly sweat.

[3] = system: secretory duct of the sweat gland (whole sweat glands); experiment: Test Example 1: time-lapse imaging of isolated whole sweat glands, moving distance of nuclei after pyrocarpin stimulation; type: cell-based, human; conditions: for movement of the secretory duct of the sweat gland: observed in the time-lapse photographed image, antiperspirant contacted with whole sweat glands
Description: As skin tissues, skin tissues which were refrigerated immediately after isolating from living donors and stored at 4° C. for 15 hours were used. The skin tissues were immersed in PBS containing 10 μM staining agent (Neutral Red), to label the sweat glands included in the skin tissues. Next, the dermis of each of the skin tissues including the staining agent was finely cut to obtain dermal segments. Whole sweat glands were collected from the dermal segments by using tweezers under an optical microscope.
The whole sweat glands obtained in Test Example 1(1) were immersed in the staining reagent mixture obtained in Production Example 1 at room temperature (24° C.) for 30 minutes, to stain the whole sweat glands. The stained whole sweat glands were washed with PBS.
The washed whole sweat glands obtained in Test Example 1(2) were allowed to stand on a glass bottom dish under a stereoscopic microscope manufactured by Leica under the trade name of M125. The collagen-containing liquid obtained in Production Example 2 was added dropwise to the whole sweat glands that were allowed to stand on the glass bottom dish. Next, the above-mentioned glass bottom dish was incubated at 37° C. for 5 minutes to gelate the collagen type I-A contained in the collagen-containing liquid placed on the whole sweat glands. Thereafter, 300 μL of PBS was added onto the above-mentioned whole sweat glands so as not to dry the whole sweat glands. Thus, the whole sweat glands were held on the glass bottom dish used as a support with the collagen type I-A so that the position of each of the whole sweat glands was retained, to obtain an observation sample.
While adhesion of the whole sweat glands to the glass bottom dish with the gelated collagen type I-A was confirmed under the stereoscopic microscope, an aliquot of Dulbecco's phosphate buffer [manufactured by Gibco, Catalog No. 14190-144] was added to the glass bottom dish used as a support.
The antiperspirant obtained in Example 1 in an amount of 3 μL was contacted with the whole sweat glands on the glass bottom dish in the observation sample. The observation of the whole sweat glands on the glass bottom dish with the time-lapse imaging was initiated by using a confocal laser scanning microscope for biological uses [inverted microscope manufactured by Olympus Corporation under the trade name of IX-83 equipped with a device manufactured by Olympus Corporation under the trade name of FV 1200]. At that time, the whole sweat glands were visualized by detecting fluorescence derived from the nuclear staining reagent bound to the nuclei and fluorescence derived from the cytoskeleton-staining reagent bound to the cytoskeleton. After 600 seconds passed from the initiation of the observation, 30 μL of the sweat gland-stimulating agent obtained in Production Example 3 was contacted with the whole sweat glands on the glass bottom dish, and thereafter the observation with the time-lapse imaging was continued. […]
Next, five cells were selected from a cell group in the lumen of the secretory duct in the time-lapse photographed image of the whole sweat glands, and five cells were selected from a cell group in the outer periphery of the secretory duct. […] In order to measure a moving distance of the nuclei of the cell, firstly changes (differences) in coordinates between consecutive frames were calculated by using X-coordinate and Y-coordinate of the nuclei of each cell in accordance with the formulae (XI) and (XII): […]

Row | Compound | movement of nuclei of cells of the secretory duct of the sweat gland (maximum of average of moving distances) [1] | average of the scores of the degree of sweating (0 to 4 points) [2] | movement of the secretory duct of the sweat gland [3] | also measured
1 | CC1(C)[C@@H](O)CC[C@]2(C)[C@H]3C(=O)C=C4[C@H]5C[C@@](C)(C(=O)O)CC[C@]5(C)CC[C@@]4(C)[C@]3(C)CC[C@@H]12 [Example 2, 18α-glycyrrhetinic acid] | hardly moved |  |  | 
2 | C[C@H]1[C@H](C)CC[C@]2(C(=O)O)CC[C@]3(C)C(=CC[C@@H]4[C@@]5(C)CC[C@H](O)C(C)(C)[C@@H]5CC[C@]43C)[C@H]12 [Example 4, ursolic acid] | hardly moved |  |  | 
3 | CC1(C(=O)O)CCC2(C)CCC3(C)C(=CC(=O)C4C5(C)CCC(OC(=O)CCC(=O)O)C(C)(C)C5CCC43C)C2C1 (centres unmarked) [Example 1] |  | tends to be higher | suppressed | movement of nuclei of the cells of the lumen of the secretory duct of the sweat gland ([3]; 3 μL antiperspirant contacted first, 30 μL sweat gland-stimulating agent (100 mM pyrocarpin) after 600 seconds, FIG. 2A white circle): hardly moved; movement of nuclei of the cells of the outer periphery of the secretory duct of the sweat gland ([3]; 3 μL antiperspirant contacted first, 30 μL sweat gland-stimulating agent (100 mM pyrocarpin) after 600 seconds, FIG. 2A white triangle): hardly moved
4 | CC1(C(=O)O)CCC2(C)CCC3(C)C(=CC(=O)C4C5(C)CCC(OC6OC(C(=O)O)C(O)C(O)C6OC6OC(C(=O)O)C(O)C(O)C6O)C(C)(C)C5CCC43C)C2C1 (centres unmarked) [formula (X)] |  | the same tendency as the antiperspirant obtained in Example 1 | the same tendency as the antiperspirant obtained in Example 1 | 
5 | β-amylin [Example 7] | hardly moved |  |  | 
6 | CC1(C(=O)O)CCC2(C)CCC3(C)C(=CC(=O)C4C5(C)CCC(O)C(C)(C)C5CCC43C)C2C1 (centres unmarked) [formula (IX)] |  | the same tendency as the antiperspirant obtained in Example 1 | the same tendency as the antiperspirant obtained in Example 1 | 
7 | CC1(C)CC[C@]2(C(=O)O)CC[C@]3(C)C(=CC[C@@H]4[C@@]5(C)CC[C@H](O)C(C)(C)[C@@H]5CC[C@]43C)[C@@H]2C1 [Example 5, oleanolic acid] | hardly moved |  |  | 
8 | α-amylin [Example 6] | hardly moved |  |  | 
9 | CC1(C)[C@@H](O)CC[C@]2(C)[C@H]3C(=O)C=C4[C@@H]5C[C@@](C)(C(=O)O)CC[C@]5(C)CC[C@@]4(C)[C@]3(C)CC[C@@H]12 [Example 3, 18β-glycyrrhetinic acid] | hardly moved |  |  | 
